# According to patent US20240180900A1, “COMPOUNDS AND METHODS FOR THE TARGETED DEGRADATION OF ANDROGEN RECEPTOR” (Arvinas Operations, Inc., priority 2022, published 2024):
# Experiments:
# AR WT = biological target: T1, AR WT (Homo sapiens, UniProt P10275); assay: AR degradation in T-Rex-293 cell line, wild-type AR; assay type: cell-based; settings: T-Rex-293, ELISA
# T1 construct: expressed in transfected cells; host or cells: T-REx-293
# Method: (§1) FIG. 3 is a graph showing Compound A's ability to degrade clinically relevant mutated forms AR.
# Plasmids expressing AR WT or the indicated AR mutants were stably transfected into HEK293 cells. Each cell line was treated with indicated concentrations of Compound A for 24 hours. AR levels were determined by AR ELISA without background subtraction. […]
# (§2) To assess the ability of Compound A to degrade variants of the AR, vectors expressing wild-type AR or mutant AR proteins harboring clinically observed mutations in the ligand binding domain (13 with single amino acid changes or 4 with 2 amino acid changes) (Azad A. A., Volik S. V., Wyatt A. W., et al. Androgen receptor gene aberrations in circulating cell-free DNA: biomarkers of therapeutic resistance in castration-resistant prostate cancer. Clin Cancer Res. 2015; 21:2315-2324; Robinson D., Van Allen E. M., Wu Y. M., et al. Integrative clinical genomics of advanced prostate cancer. Cell. 2015; 161:1215-1228; Ledet E. M., Lilly M. B., Sonpavde G., et al. Comprehensive analysis of AR alterations in circulating tumor DNA from patients with advanced prostate cancer. Oncologist.
# AR V716M = biological target: T2, AR V716M (Homo sapiens, UniProt P10275, V716M); assay: AR degradation in T-Rex-293 cell line, V716M; assay type: cell-based; settings: T-Rex-293, ELISA
# T2 construct: expressed in transfected cells; host or cells: T-REx-293
# T2 sequence (P10275 whole entry V716M): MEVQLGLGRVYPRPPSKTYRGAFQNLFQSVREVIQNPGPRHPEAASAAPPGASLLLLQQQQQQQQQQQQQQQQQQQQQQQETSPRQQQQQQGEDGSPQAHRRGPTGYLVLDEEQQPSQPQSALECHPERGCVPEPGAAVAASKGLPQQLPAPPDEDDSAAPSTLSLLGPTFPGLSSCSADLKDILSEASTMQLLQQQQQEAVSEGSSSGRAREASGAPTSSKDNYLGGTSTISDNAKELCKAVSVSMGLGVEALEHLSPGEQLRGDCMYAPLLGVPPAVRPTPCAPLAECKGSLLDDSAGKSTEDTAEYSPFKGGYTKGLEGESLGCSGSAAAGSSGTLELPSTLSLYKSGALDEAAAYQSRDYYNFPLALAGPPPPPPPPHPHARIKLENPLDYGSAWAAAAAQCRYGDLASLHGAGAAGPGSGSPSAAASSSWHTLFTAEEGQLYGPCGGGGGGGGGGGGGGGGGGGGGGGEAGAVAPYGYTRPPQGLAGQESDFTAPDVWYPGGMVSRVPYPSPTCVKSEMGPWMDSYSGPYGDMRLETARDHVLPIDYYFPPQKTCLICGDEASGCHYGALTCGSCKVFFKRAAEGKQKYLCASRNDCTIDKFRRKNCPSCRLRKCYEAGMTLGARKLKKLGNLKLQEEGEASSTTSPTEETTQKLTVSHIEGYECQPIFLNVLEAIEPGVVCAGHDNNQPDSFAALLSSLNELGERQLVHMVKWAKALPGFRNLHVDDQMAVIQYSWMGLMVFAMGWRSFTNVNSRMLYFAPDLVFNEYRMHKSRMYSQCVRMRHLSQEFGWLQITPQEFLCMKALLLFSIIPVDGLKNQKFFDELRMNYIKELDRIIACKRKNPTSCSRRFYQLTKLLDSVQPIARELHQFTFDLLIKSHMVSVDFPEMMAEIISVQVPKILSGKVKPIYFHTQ
# From the text: as §1, §2
# AR T878S = biological target: T3, AR T878S (Homo sapiens, UniProt P10275, T878S); assay: AR degradation in T-Rex-293 cell line, T878S; assay type: cell-based; settings: T-Rex-293, ELISA
# T3 construct: expressed in transfected cells; host or cells: T-REx-293
# T3 sequence (P10275 whole entry T878S): as the sequence (P10275 whole entry V716M) above, with M716V, T878S counted along it
# From the text: as §1, §2
# PSA = assay: plasma PSA levels by ELISA, intact VCaP tumor model; assay type: in vivo, mouse
# From the text: Plasma PSA levels are used as a clinical biomarker of disease progression and are thought to be closely related with the degree of AR activity (Catalona, W. J., Richie, J. P., Ahmann, F. R., et al. Comparison of digital rectal examination and serum prostate specific antigen in the early detection of prostate cancer: results of a multicenter clinical trial of 6,630 men. The Journal of Urology. 1994; 151(5):1283-1290. Cleutjens, K. B., van Eekelen, C. C., van der Korput, H. A., et al. Two androgen response regions cooperate in steroid hormone regulated activity of the prostate-specific antigen promoter. J Biol Chem. 1996; 271(11):6379-6388.). Plasma PSA levels upon Compound A treatment were evaluated by ELISA in samples from the intact VCaP tumor model.
# T1 sequence (P10275 whole entry): as the sequence (P10275 whole entry V716M) above, with M716V counted along it
smiles,measurement,setting,value
"COc1cc(O[C@H]2C(C)(C)[C@H](NC(=O)c3ccc(N4CCC(CN5CCN(c6ccc(C(=O)N[C@H]7CCC(=O)NC7=O)c(F)c6)CC5)CC4)cc3)C2(C)C)ccc1C#N [Compound A, 4-(4-((1-(4-(((1R,3R)-3-(4-cyano-3-methoxyphenoxy)-2,2,4,4-tetramethylcyclobutyl)carbamoyl)phenyl)piperidin-4-yl)methyl)piperazin-1-yl)-N—((S)-2,6-dioxopiperidin-3-yl)-2-fluorobenzamide]",DC50,AR WT,1.5 nM
same,DC50,AR V716M,0.4 nM
same,DC50,AR T878S,0.9 nM
same,plasma PSA levels vs enzalutamide,PSA; 3 mg/kg and 10 mg/kg vs 20 mg/kg enzalutamide,reduced PSA levels more robustly than 20 mg/kg of enzalutamide
same,plasma PSA levels,"PSA; all 3 doses (10, 3, 1 mg/kg/day), tumor-bearing intact mice",reduced PSA levels in a dose-dependent manner
